Test results reported in ChEMBL document CHEMBL4428074, “The discovery of 2,5-isomers of triazole-pyrrolopyrimidine as selective Janus kinase 2 (JAK2) inhibitors versus JAK1 and JAK3” (Bioorg Med Chem, 2016).

Legend:
[1] = target: Tyrosine-protein kinase JAK1 (Homo sapiens, UniProt P23458)
[2] = target: T1, Tyrosine-protein kinase JAK3 (Homo sapiens, UniProt P52333)
T1 sequence (P52333 whole entry): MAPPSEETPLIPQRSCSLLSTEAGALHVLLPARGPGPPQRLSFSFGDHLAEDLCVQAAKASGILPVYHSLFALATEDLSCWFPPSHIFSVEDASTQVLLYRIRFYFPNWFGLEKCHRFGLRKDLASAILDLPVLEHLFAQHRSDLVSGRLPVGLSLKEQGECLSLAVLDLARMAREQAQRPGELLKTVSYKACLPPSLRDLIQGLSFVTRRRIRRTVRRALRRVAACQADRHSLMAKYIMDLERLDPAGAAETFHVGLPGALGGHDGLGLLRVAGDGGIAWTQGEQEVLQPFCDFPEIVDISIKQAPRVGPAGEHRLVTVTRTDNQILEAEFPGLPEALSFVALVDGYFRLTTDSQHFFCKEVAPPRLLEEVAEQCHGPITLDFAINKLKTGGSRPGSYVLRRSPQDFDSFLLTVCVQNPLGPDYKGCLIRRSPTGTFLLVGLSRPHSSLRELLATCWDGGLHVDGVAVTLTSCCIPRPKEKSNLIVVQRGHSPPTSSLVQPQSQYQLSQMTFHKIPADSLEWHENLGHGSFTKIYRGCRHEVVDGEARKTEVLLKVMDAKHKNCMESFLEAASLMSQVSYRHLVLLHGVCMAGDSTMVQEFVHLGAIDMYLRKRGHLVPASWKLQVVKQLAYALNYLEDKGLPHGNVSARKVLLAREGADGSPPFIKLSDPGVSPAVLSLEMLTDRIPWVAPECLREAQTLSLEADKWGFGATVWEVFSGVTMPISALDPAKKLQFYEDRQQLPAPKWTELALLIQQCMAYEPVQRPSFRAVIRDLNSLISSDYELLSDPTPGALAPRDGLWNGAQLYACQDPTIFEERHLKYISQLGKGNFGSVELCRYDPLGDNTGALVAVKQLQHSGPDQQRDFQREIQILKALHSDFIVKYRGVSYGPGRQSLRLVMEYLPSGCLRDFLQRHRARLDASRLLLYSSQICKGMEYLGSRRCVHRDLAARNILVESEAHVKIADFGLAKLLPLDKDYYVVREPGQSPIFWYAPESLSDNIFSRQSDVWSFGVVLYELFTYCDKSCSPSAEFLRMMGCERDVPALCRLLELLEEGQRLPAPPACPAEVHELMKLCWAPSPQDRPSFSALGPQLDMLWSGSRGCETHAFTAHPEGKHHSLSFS
Description: Inhibition of JAK3 (unknown origin) measured after 1 hr in presence of ATP by TR-FRET assay

HEL 92.1.7 [3] = experiment: cells; format: functional; conditions: Homo sapiens, HEL 92.1.7, 72 h
Description: Antiproliferative activity against HEL 92.1.7 cells assessed as viable cells at 10 uM measured after 3 days by WST-1 assay

HCC827 = format: functional, Homo sapiens; conditions: at 30 µM
Description: Cytotoxicity against wild-type human HCC827 cells at 30 uM measured after 72 hrs by MTT assay

HEL 92.1.7 [4] = format: functional, Homo sapiens
Description: Antiproliferative activity against HEL 92.1.7 cells assessed as inhibition of cell growth

HEL 92.1.7 [5] = experiment: cells; conditions: Homo sapiens, HEL 92.1.7, 72 h
Description: Antiproliferative activity against HEL 92.1.7 cells assessed as viable cells measured after 3 days by WST-1 assay

Chain of Tyrosine-protein kinase JAK1 (P23458 whole entry): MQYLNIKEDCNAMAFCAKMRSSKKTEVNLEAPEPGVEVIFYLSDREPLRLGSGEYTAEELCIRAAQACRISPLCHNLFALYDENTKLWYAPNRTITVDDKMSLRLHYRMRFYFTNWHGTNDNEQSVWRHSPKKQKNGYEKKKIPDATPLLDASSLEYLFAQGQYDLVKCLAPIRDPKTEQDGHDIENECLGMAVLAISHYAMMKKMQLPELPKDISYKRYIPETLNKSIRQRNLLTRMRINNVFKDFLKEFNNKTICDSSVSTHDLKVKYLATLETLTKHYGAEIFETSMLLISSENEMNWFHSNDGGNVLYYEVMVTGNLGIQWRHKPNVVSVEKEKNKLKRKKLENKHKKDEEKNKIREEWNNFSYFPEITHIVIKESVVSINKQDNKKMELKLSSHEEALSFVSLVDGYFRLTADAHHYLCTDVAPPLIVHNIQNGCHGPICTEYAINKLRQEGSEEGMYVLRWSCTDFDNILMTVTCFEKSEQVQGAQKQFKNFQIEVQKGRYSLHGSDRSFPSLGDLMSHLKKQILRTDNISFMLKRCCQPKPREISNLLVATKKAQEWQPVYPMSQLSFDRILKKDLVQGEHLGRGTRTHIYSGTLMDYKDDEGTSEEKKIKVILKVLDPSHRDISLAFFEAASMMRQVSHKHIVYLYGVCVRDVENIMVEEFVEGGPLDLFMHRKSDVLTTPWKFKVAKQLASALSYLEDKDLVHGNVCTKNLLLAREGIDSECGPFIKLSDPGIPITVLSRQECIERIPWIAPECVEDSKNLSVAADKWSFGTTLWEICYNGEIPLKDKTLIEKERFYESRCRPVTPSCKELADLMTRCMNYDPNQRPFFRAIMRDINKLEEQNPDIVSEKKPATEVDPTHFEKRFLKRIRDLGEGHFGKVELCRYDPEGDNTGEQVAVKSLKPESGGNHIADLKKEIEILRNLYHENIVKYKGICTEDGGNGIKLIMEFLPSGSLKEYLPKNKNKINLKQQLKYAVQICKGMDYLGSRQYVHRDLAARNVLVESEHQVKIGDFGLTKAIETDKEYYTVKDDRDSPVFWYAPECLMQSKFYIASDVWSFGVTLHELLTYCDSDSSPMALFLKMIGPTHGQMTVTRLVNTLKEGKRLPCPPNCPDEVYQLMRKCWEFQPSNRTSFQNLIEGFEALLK

| Structure (SMILES) | IC50 [1] [nM] | inhibition at 10 µM (HEL 92.1.7 [3]) [%] | other results |
| --- | --- | --- | --- |
| Cc1nn(CC2CCC2)nc1-c1ncnc2[nH]ccc12 | – | 49.8 | – |
| C=C(C)Cn1nc(C)c(-c2ncnc3[nH]ccc23)n1 | 142 | 52.7 | – |
| Cc1nn(CC2CCCC2)nc1-c1ncnc2[nH]ccc12 | – | 64.1 | – |
| Cc1nn(CCCC(F)(F)F)nc1-c1ncnc2[nH]ccc12 | 82 | 9.1 | – |
| Cc1nn(CC2CC2)nc1-c1ncnc2[nH]ccc12 | 444 | 44.8 | IC50 [2]: 2440 nM |
| N#CC[C@H](C1CCCC1)n1cc(-c2ncnc3[nH]ccc23)cn1 [RUXOLITINIB] | – | – | inhibition (INH) (HCC827): 16.6%; growth inhibition (GI) (HEL 92.1.7 [4]): 55%; IC50 (HEL 92.1.7 [5]): 14700 nM |

Second part, led by results:

| IC50 [1] [nM] | Structure (SMILES) | inhibition at 10 µM (HEL 92.1.7 [3]) [%] | other results |
| --- | --- | --- | --- |
| 72 | Cc1nn(CCCC#N)nc1-c1ncnc2[nH]ccc12 | 65.3 | IC50 [2]: 1760 nM |
| 186 | Cc1nn(CCCCCC#N)nc1-c1ncnc2[nH]ccc12 | – | – |
| 138 | Cc1nn(CCCCC#N)nc1-c1ncnc2[nH]ccc12 | 41.3 | – |
